Laboratory results from PMC6450699 (Archives of biochemistry and biophysics, 2018).

Target: human cytochrome P450 3A4 (CYP3A4) (Homo sapiens, UniProt P08684, C58T/C64A/C98S/F215C/C239S/C468G)
Experiment: purified enzyme with CPR: fluorescent HFC production and NADPH consumption
Assay type: biochemical

Chain of human cytochrome P450 3A4 (CYP3A4) (P08684 13-503 C58T/C64A/C98S/F215C/C239S/C468G): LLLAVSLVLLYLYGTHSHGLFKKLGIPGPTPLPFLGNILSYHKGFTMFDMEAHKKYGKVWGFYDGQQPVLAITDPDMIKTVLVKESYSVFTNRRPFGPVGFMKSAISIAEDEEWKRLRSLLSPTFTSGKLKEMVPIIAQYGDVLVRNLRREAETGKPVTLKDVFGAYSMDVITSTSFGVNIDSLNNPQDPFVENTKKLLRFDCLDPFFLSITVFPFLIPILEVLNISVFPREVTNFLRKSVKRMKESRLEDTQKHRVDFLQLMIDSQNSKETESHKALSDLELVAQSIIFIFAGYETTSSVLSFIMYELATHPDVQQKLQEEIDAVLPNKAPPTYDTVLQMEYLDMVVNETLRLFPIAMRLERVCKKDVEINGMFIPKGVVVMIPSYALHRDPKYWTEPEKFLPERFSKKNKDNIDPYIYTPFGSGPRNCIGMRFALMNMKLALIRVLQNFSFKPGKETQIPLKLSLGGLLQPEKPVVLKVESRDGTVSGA

HFC produced^b: 0.0044 ± 0.0008 μmol/min/μmol enzyme
SMILES: O=c1cc(C(F)(F)F)c2ccc(OCc3ccccc3)cc2o1 [BFC, 7-benzyloxy-4-trifluoromethylcoumarin]
